Assay results reported in PubChem BioAssay (NCI).
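Compound exposure: 48 hours, 5 concentrations, 96-well plates. Here, GI50 denotes the concentration required for 50% inhibition of growth. TGI is the concentration that stops growth completely.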

Experiments:
Assay in all cases: NCI tumour cell line growth inhibition, 48 h
[1] = test system: MDA-N
[2] = test system: DU-145 prostate
[3] = test system: M19-MEL melanoma
[4] = test system: LXFL 529 NSCLC
[5] = test system: SNB-78 CNS
[6] = test system: XF 498 CNS
[7] = test system: P388 leukemia
[8] = test system: P388/ADR leukemia
[9] = test system: DLD-1 colon
[10] = test system: SN12K1 renal
[11] = test system: 786-0 renal

Structure (SMILES) | TGI [1] [µM] | TGI [2] [µM] | TGI [3] [µM] | TGI [5] [µM] | TGI [6] [µM] | TGI [9] [µM] | also measured
c1ccc(N=C2SC(=NC3CCCCC3)N(C3CCCCC3)C2=Nc2ccccc2)cc1 | > 100 | > 100 |  |  |  |  | 
COc1ccccc1C1C(C(=O)O)=C(CO)Oc2cc3c(cc21)OCO3 (centres undefined) |  |  | > 100 | > 100 |  |  | TGI [4]: > 100 µM
Cc1nc(N)sc1-c1ccnc(Nc2ccc(N3CCOCC3)cc2)n1 |  | > 100 |  |  |  |  | GI50 [2]: 2.99 µM
Cc1ccc(S(=O)(=O)Oc2cc(-c3ccccc3)nc3ccccc23)cc1 |  |  | 40.6 | 50.6 | 24.3 | > 46.8 | TGI [7]: 3.12 µM; TGI [8]: 12.6 µM; TGI [10]: 4.25 µM
CC(=O)OC1CCC2(C)C3CCC4(C)C(c5ccc(=O)oc5)CC5OC54C3CCC2(O)C1 (centres undefined) |  |  | 11.8 | 12 | 6.97 | 1.57 | TGI [7]: > 200 µM; TGI [8]: > 200 µM; TGI [10]: 3.7 µM
COc1ccc(C2CC(c3cccc(Nc4ccncc4)c3)=NN2c2cc(Cl)cc(Cl)c2)cc1 (centres undefined) |  | 3.58 |  |  |  |  | GI50 [2]: 1.89 µM
NC(Cc1cccc([N+](=O)[O-])c1)C(=O)O (centres undefined) | > 100 | > 100 |  |  |  |  | TGI [11]: > 100 µM
O=C(OC(=O)n1ccc2ccccc21)n1ccc2ccccc21 |  |  | > 100 | > 100 | > 100 | > 100 | TGI [10]: > 100 µM
NCCCNc1nc2ccccc2c2c(=O)c3cc(OC(F)(F)F)ccc3sc12 |  | 3.04 |  |  |  |  | GI50 [2]: 1.62 µM
C=CC(Br)(CBr)CCC(Cl)C(C)C (centres undefined) | 2.8 | 8.69 |  |  |  |  | 
CCC[CH2][Ge]([CH2]CCC)([CH2]CCC)[O]C(=O)CC(=O)c1ccccc1 |  |  | 19.3 |  | 23.8 | 16 | GI50 [6]: 11.6 µM; GI50 [9]: 0.77 µM; GI50 [3]: 3.83 µM; GI50 [4]: 0.325 µM; TGI [4]: 13.7 µM
O=NN(CCCl)C(=O)NC1CCSc2ccccc21 (centres undefined) |  |  | > 100 | > 100 | > 100 | > 100 | TGI [7]: 82.6 µM; TGI [8]: > 100 µM; TGI [10]: > 100 µM
CC(=O)Oc1cccc2c(/C=N/NC(N)=S)ncc(C)c12 | 21 | 17.8 |  |  |  |  | 
Cc1cc(=O)[nH]c(NN2C(Cl)C(=O)C2c2cccc(O)c2)n1 (centres undefined) |  |  | > 100 | > 100 |  |  | TGI [4]: > 100 µM
Cc1ccc2c(n1)C(=O)c1[nH]c3ccccc3c1C2=O |  | 2.53 |  |  |  |  | GI50 [2]: 1.19 µM
NNC(N)Nc1ccccc1 (centres undefined) | > 100 | > 100 |  |  |  |  | 
